For 26 compounds, Ki results are on record in patent US11891388B2 (Incyte Corporation, priority 2016, dated 2024).

A value given as a limit tells only on which side of the number the result lay.

In the experiment the target is HPK1 (Homo sapiens, UniProt Q92918). The experiment in a line: HPK1 Kinase Binding Assay. The settings on record: LanthaScreen tracer 222 binding, active HPK1, one hour incubation at 25° C. As for the experimental part: A stock solution of 1 mM test compound was prepared in DMSO. The compound plate was prepared by 3-fold and 11-point serial dilutions. 0.1 μL of the compound in DMSO was transferred from the compound plate to the white 384 well polystyrene plates. The assay buffer contained 50 mM HEPES, pH 7.5, 0.01% Tween-20, 5 mM MgCl2, 0.01% BSA, and 5 mM DTT. 5 μl of 4 nM active HPK1 (SignalChem M23-11G) prepared in the buffer was added to the plate. The enzyme concentration given was based on the given stock concentration reported by the vender. 5 μl of 18 nM tracer 222 (ThermoFisher PV6121) and 4 nM LanthaScreen Eu-Anti GST antibody (ThermoFisher PV5595) were added. After one hour incubation at 25° C., the plates were read on a PHERAstar FS plate reader (BMG Labtech). Ki values were determined.
A general note: TR-FRET usually uses a lanthanide donor and a delayed reading to cut background.
As a reminder, the Ki is a dissociation constant, usually derived from enzyme kinetics or from competition with a known ligand. Read a low Ki as a stronger hold on the target. The compound `CN1CCN(c2ccc(-c3n[nH]c4ccc(-c5ccccc5)nc34)cc2)CC1` [Example 1, 3-(4-(4-Methylpiperazin-1-yl)phenyl)-5-phenyl-1H-pyrazolo[4,3-b]pyridine] returned a Ki of 0.1 to 0.5 µM.

In turn, `COc1ccccc1-c1ccc2[nH]nc(-c3ccc(N4CCN(C)CC4)cc3)c2n1` [Example 2] yielded a Ki of 0.1 to 0.5 µM.

In turn, `CN1CCN(c2ccc(-c3n[nH]c4ccc(-c5ccccc5O)nc34)cc2)CC1` [Example 14, 2-(3-(4-(4-Methylpiperazin-1-yl)phenyl)-1H-pyrazolo[4,3-b]pyridin-5-yl)phenol] showed a Ki of 0.1 to 0.5 µM.

Consider `CN1CCN(c2ccc(-c3n[nH]c4ccc(-c5cccc6c5OCC6)nc34)cc2)CC1` [Example 15, 5-(2,3-Dihydrobenzofuran-7-yl)-3-(4-(4-methylpiperazin-1-yl)phenyl)-1H-pyrazolo[4,3-b]pyridine], for which the Ki was in the range of 0.1 to 0.5 µM.

In turn, `CN1CCN(c2ccc(-c3n[nH]c4ccc(-c5cccc6c5OCCO6)nc34)cc2)CC1` [Example 16, 5-(2,3-Dihydrobenzo[b][1,4]dioxin-5-yl)-3-(4-(4-methylpiperazin-1-yl)phenyl)-1H-pyrazolo[4,3-b]pyridine] gave a Ki of 0.1 to 0.5 µM.

For `CNC(=O)c1cccc(-c2ccc3[nH]nc(-c4ccc(N5CCN(C)CC5)cc4)c3n2)c1` [Example 17, N-Methyl-3-(3-(4-(4-methylpiperazin-1-yl)phenyl)-1H-pyrazolo[4,3-b]pyridin-5-yl)benzamide], the Ki lay within 0.1 to 0.5 µM.

With `CN1CCN(c2ccc(-c3n[nH]c4ccc(-c5cccc(N(C)C)c5)nc34)cc2)CC1` [Example 18, N,N-Dimethyl-3-(3-(4-(4-methylpiperazin-1-yl)phenyl)-1H-pyrazolo[4,3-b]pyridin-5-yl)aniline], the Ki lay within 0.5 to 10 µM.

`COC(=O)c1ccccc1-c1ccc2[nH]nc(-c3ccc(N4CCN(C)CC4)cc3)c2n1` [Example 20, Methyl 2-(3-(4-(4-methylpiperazin-1-yl)phenyl)-1H-pyrazolo[4,3-b]pyridin-5-yl)benzoate] yielded a Ki of 0.5 to 10 µM.

Consider `CC(=O)Nc1ccccc1-c1ccc2[nH]nc(-c3ccc(N4CCN(C)CC4)cc3)c2n1` [Example 21, N-(2-(3-(4-(4-Methylpiperazin-1-yl)phenyl)-1H-pyrazolo[4,3-b]pyridin-5-yl)phenyl)acetamide], for which the Ki lay in the range of 0.5 to 10 µM.

Take `CN1CCN(c2ccc(-c3n[nH]c4ccc(-c5ccccc5-c5ccccc5)nc34)cc2)CC1` [Example 22, 5-(Biphenyl-2-yl)-3-(4-(4-methylpiperazin-1-yl)phenyl)-1H-pyrazolo[4,3-b]pyridine]: the Ki lay within 0.1 to 0.5 µM.

The compound `CN1CCN(c2ccc(-c3n[nH]c4ccc(-c5ccncc5)nc34)cc2)CC1` [Example 25, 3-(4-(4-Methylpiperazin-1-yl)phenyl)-5-(pyridin-4-yl)-1H-pyrazolo[4,3-b]pyridine] showed a Ki of 0.1 to 0.5 µM.

`CN1CCN(c2ccc(-c3n[nH]c4ccc(-c5ccc(=O)n(C)c5)nc34)cc2)CC1` [Example 30, 1-Methyl-5-(3-(4-(4-methylpiperazin-1-yl)phenyl)-1H-pyrazolo[4,3-b]pyridin-5-yl)pyridin-2(1H)-one] displayed a Ki of 0.5 to 10 µM.

`CN1CCN(c2ccc(-c3n[nH]c4ccc(-c5cccc6ncccc56)nc34)cc2)CC1` [Example 36, 5-(3-(4-(4-Methylpiperazin-1-yl)phenyl)-1H-pyrazolo[4,3-b]pyridin-5-yl)quinoline]: the Ki fell in the range of 0.1 to 0.5 µM.

The compound `CN1CCN(c2ccc(-c3n[nH]c4ccc(-c5cccc6c5CC(=O)N6)nc34)cc2)CC1` [Example 38, 4-(3-(4-(4-Methylpiperazin-1-yl)phenyl)-1H-pyrazolo[4,3-b]pyridin-5-yl)indolin-2-one] returned a Ki of 0.1 to 0.5 µM.

With `CN1CCN(c2ccc(-c3n[nH]c4ccc(-c5cccc6c5ccn6C)nc34)cc2)CC1` [Example 39, 5-(1-Methyl-1H-indol-4-yl)-3-(4-(4-methylpiperazin-1-yl)phenyl)-1H-pyrazolo[4,3-b]pyridine], the Ki lay in the range of 0.1 to 0.5 µM.

As to `CCc1cn2cccc(-c3ccc4[nH]nc(-c5ccc(N6CCN(C)CC6)cc5)c4n3)c2n1` [Example 45, 5-(2-Ethylimidazo[1,2-a]pyridin-8-yl)-3-(4-(4-methylpiperazin-1-yl)phenyl)-1H-pyrazolo[4,3-b]pyridine], the Ki lay within 0.1 to 0.5 µM.

In turn, `CN1CCN(c2ccc(-c3n[nH]c4ccc(-c5cccc6c5CCC6NCCO)nc34)cc2)CC1` (centres unmarked) [Example 49, 2-(4-(3-(4-(4-Methylpiperazin-1-yl)phenyl)-1H-pyrazolo[4,3-b]pyridin-5-yl)-2,3-dihydro-1H-inden-1-ylamino)ethanol] yielded a Ki not above 0.1 µM.

As to `Fc1ccccc1-c1ccc2[nH]nc(-c3ccccc3)c2n1` [Example 51, 5-(2-Fluorophenyl)-3-phenyl-1H-pyrazolo[4,3-b]pyridine], the Ki was in the range of 0.5 to 10 µM.

For `Fc1ccccc1-c1ccc2[nH]nc(-c3ccncc3)c2n1` [Example 52, 5-(2-Fluorophenyl)-3-(pyridin-4-yl)-1H-pyrazolo[4,3-b]pyridine], the Ki was 0.5 to 10 µM.

Consider `CNC(=O)c1ccc(-c2n[nH]c3ccc(-c4ccccc4F)nc23)cc1` [Example 53, 4-(5-(2-Fluorophenyl)-1H-pyrazolo[4,3-b]pyridin-3-yl)-N-methylbenzamide], for which the Ki lay within 0.1 to 0.5 µM.

Compound `Cn1cc(-c2n[nH]c3ccc(-c4ccccc4F)nc23)cn1` [Example 54] displayed a Ki of 0.1 to 0.5 µM.

As for `CN1CCN(C(=O)c2ccc(-c3n[nH]c4ccc(-c5ccccc5F)nc34)cc2)CC1` [Example 56, (4-(5-(2-Fluorophenyl)-1H-pyrazolo[4,3-b]pyridin-3-yl)phenyl)(4-methylpiperazin-1-yl)methanone], the Ki fell in the range of 0.5 to 10 µM.

On to `O=C(Nc1ccccc1)c1ccc(-c2n[nH]c3ccc(-c4ccccc4F)nc23)cc1` [Example 57, 4-(5-(2-Fluorophenyl)-1H-pyrazolo[4,3-b]pyridin-3-yl)-N-phenylbenzamide], for which the Ki is 0.5 to 10 µM.

Compound `Fc1ccccc1-c1ccc2[nH]nc(-c3cnn(C4CCNCC4)c3)c2n1` [Example 58, 5-(2-Fluorophenyl)-3-(1-(piperidin-4-yl)-1H-pyrazol-4-yl)-1H-pyrazolo[4,3-b]pyridine] registered a Ki of 0.1 to 0.5 µM.

With `CS(=O)(=O)N1CCC(n2cc(-c3n[nH]c4ccc(-c5ccccc5F)nc34)cn2)CC1` [Example 59, 5-(2-Fluorophenyl)-3-(1-(1-(methylsulfonyl)piperidin-4-yl)-1H-pyrazol-4-yl)-1H-pyrazolo[4,3-b]pyridine], the Ki is 0.5 to 10 µM.

`CC(=O)N1CCC(n2cc(-c3n[nH]c4ccc(-c5ccccc5F)nc34)cn2)CC1` [Example 60, 1-(4-(4-(5-(2-Fluorophenyl)-1H-pyrazolo[4,3-b]pyridin-3-yl)-1H-pyrazol-1-yl)piperidin-1-yl)ethanone] registered a Ki of 0.5 to 10 µM.
